Columns and labels:
[1] = tested on: LPS triggered IL-10 secretion in monocyte-derived macrophages; assay: MdM assay: LPS-triggered IL-10 (ELISA); format: cell-based; conditions: Macrophage; human MdM; LPS 200 ng/mL; supernatant after 2 h; maximal fold change vs LPS only, median of two or more assays; read-out: IL-10 FCmax median
Procedure: SIK inhibition inhibits TNFα and increases IL-10 release in LPS triggered monocyte-derived macrophages (MdM) and dendritic cells (MdDCs) (Clark et al. 2012; Sundberg et al. 2014; Ozanne et al. 2015). This assay evaluates illustrative compounds of the invention for their inhibition of LPS-induced TNFα and LPS triggered IL-10 secretion in monocyte-derived macrophages.
PBMCs are isolated from human blood samples (buffycoats). The buffy coat is aseptically transferred into a 50 mL Falcon tube, and diluted 1/2 in PBS. Falcon tubes are filled with 20 mL Lymphoprep™, on top of which 25 mL of the buffy coat is carefully added, tubes are centrifuged for 35 min at 400 g in temperature controlled centrifuge, without brake, at 25° C. PBMCs are aspirated from the white interface layer between sample and Lymphoprep™. PBMCs are washed five times in PBS. Cells are resuspended in RPMI 1640 complete medium supplemented with 10% FBS, 1% P/S, and cell density is determined using a hematologic analyzer (Sysmex XS-500i).
PBMCs are centrifuged at 300×g for 10 min and resuspended at a density of 1.0*10^7 cells/80 μL Miltenyi buffer (PBS, pH 7.4, 1% FBS, 2 mM EDTA).
Starting from this point of the protocol all steps are performed on ice. 20 μL of CD14+ micro-beads are added per 1.0*10^7 cells, the tube is mixed and incubated for 15 min in the fridge at 4° C. Cell suspension volume is adjusted to total volume of 100 mL using Miltenyi buffer, mixed gently and subsequently centrifuged for 10 min at 300×g. Supernatant is discarded and cell pellet is resuspended in 12 mL of Miltenyi buffer.
Four LS columns are placed in the MACS Separator (magnet) from Miltenyi Biotec, and are prewet by rinsing with 3 mL of MACS buffer per column. Three mL of cell suspension is added onto the column (max 1*10^8 of labelled cells/column), and columns are subsequently washed 3 times with 3 mL of Miltenyi buffer.
The columns are removed from the magnets, and 5 mL of Miltenyi buffer are added to the column to flush out the CD14+ fraction by pushing the plunger into the column. The flushed fractions are collected in a fresh 50 mL Falcon and volume is adjusted to 30 mL using Miltenyi buffer, cells are centrifuged for 10 min at 300×g. The obtained cell pellet is resuspended in 10 mL RPMI w/o FBS, and cell density is determined using a hematologic analyser (Sysmex XS-500i). 100 000 cells are seeded per well of a 96-well plate for differentiation to MdM in RPMI 1640 medium supplemented with 10% FBS, 1% P/S and 100 ng/mL rhM-CSF. On day 5 the medium is refreshed with 100 μL RPMI 1640 medium supplemented with 10% FBS, 1% P/S and 100 ng/mL rhM-CSF.
On day 10, MdMs are triggered and compound is added.
A compound dilution plate is made in 100% DMSO by 3-fold dilution of 10 mM stock solution. An intermediate dilution plate (10× final concentration) is made by diluting the compound dilution plate 50-fold in RPMI medium.
Medium is carefully removed from cell plates using multichannel pipette, and replaced by 80 μL fresh medium. 10 μL of the 10× final concentration compound is added to the cells and incubated for 1 hour at 37° C. before addition of trigger. No trigger conditions/trigger conditions are spiked with equal final DMSO concentrations of 0.2% DMSO. 10 μL of 10×LPS (final conc. 200 ng/mL) solution are added to all wells except for the ‘no trigger wells’ where 10 μL medium is added. Supernatant is collected after 2 h (IL-10 determination) and after 20 h (TNFα determination) of LPS triggering. […]

[2] = tested on: LPS triggered IL-10 secretion in monocytes; assay: Monocytes assay: LPS-triggered IL-10 (ELISA); format: cell-based, human; conditions: Homo sapiens, Monocyte, LPS-triggered IL-10 induction, median maximal fold change vs LPS only, read-out: IL-10 FCmax median
Summary of the method: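 CD14+ monocytes bead-isolated from human PBMCs, pretreated with compound 1 h at 37 °C (0.2% DMSO), then stimulated with LPS 200 ng/mL for 4 h. Supernatant IL-10 measured by chemiluminescent sandwich ELISA; fold change versus LPS only per concentration, reported as maximal fold change (FCmax).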

Row | Structure (SMILES) | maximal fold induction [1] | maximal fold induction [2]
1 | COc1cc(-c2cnc3cc(C(C)(C)C#N)ccn23)cc(OC(F)F)c1C(=O)NC1CC1 [Cpd 19, 4-[7-(1-cyano-1-methyl-ethyl)imidazo[1,2-a]pyridin-3-yl]-N-cyclopropyl-2-(difluoromethoxy)-6-methoxy-benzamide] | < 1.5 | < 1.5
2 | COc1cc(-c2cnn3cc(C(C)(C)C#N)ccc23)cc(OC(F)F)c1C(=O)NC1CC1 [Cpd 208, 4-[6-(1-cyano-1-methyl-ethyl)pyrazolo[1,5-a]pyridin-3-yl]-N-cyclopropyl-2-(difluoromethoxy)-6-methoxy-benzamide] | < 1.5 | < 1.5
3 | COc1cc(-c2cnn3cc(C(C)(C)O)ccc23)cc(OC(F)F)c1C(=O)N[C@@H]1C[C@@H]1F [Cpd 227, 2-(difluoromethoxy)-N-[(1R,2S)-2-fluorocyclopropyl]-4-[6-(1-hydroxy-1-methyl-ethyl)pyrazolo[1,5-a]pyridin-3-yl]-6-methoxy-benzamide] | 1.5 to 4.5 | < 1.5
4 | COc1cc(-c2cnc3cc(C(C)(C)C#N)cnn23)cc(OC(F)F)c1C(=O)N[C@@H]1C[C@@H]1F [Cpd 228, 4-[7-(1-cyano-1-methyl-ethyl)imidazo[1,2-b]pyridazin-3-yl]-2-(difluoromethoxy)-N-[(1R,2S)-2-fluorocyclopropyl]-6-methoxy-benzamide] | < 1.5 | < 1.5
5 | COc1cc(-c2cnn3cc(C(C)(C)C#N)cnc23)cc(OC(F)F)c1C(=O)N[C@@H]1C[C@@H]1F [Cpd 231, 4-[6-(1-cyano-1-methyl-ethyl)pyrazolo[1,5-a]pyrimidin-3-yl]-2-(difluoromethoxy)-N-[(1R,2S)-2-fluorocyclopropyl]-6-methoxy-benzamide] | 1.5 to 4.5 | < 1.5
6 | COc1cc(-c2cnn3cc(C(C)(C)CO)ccc23)cc(OC(F)F)c1C(=O)N[C@@H]1C[C@@H]1F [Cpd 242, 2-(difluoromethoxy)-N-[(1R,2S)-2-fluorocyclopropyl]-4-[6-(2-hydroxy-1,1-dimethyl-ethyl)pyrazolo[1,5-a]pyridin-3-yl]-6-methoxy-benzamide] | < 1.5 | < 1.5
7 | COc1cc(-c2cnn3cc(C4(C#N)CCOCC4)ccc23)cc(OC(F)F)c1C(=O)N[C@@H]1C[C@@H]1F [Cpd 243, 4-[6-(4-cyanotetrahydropyran-4-yl)pyrazolo[1,5-a]pyridin-3-yl]-2-(difluoromethoxy)-N-[(1R,2S)-2-fluorocyclopropyl]-6-methoxy-benzamide] | < 1.5 | < 1.5
8 | COc1cc(-c2cnn3cc(C(C)(C)C#N)ccc23)cc(OC)c1C(=O)N[C@@H]1C[C@@H]1F [Cpd 245, 4-[6-(1-cyano-1-methyl-ethyl)pyrazolo[1,5-a]pyridin-3-yl]-N-[(1R,2S)-2-fluorocyclopropyl]-2,6-dimethoxy-benzamide] | < 1.5 | < 1.5
9 | COc1cc(-c2cnn3cc(C4(C(N)=O)CCC4)ccc23)cc(OC(F)F)c1C(=O)N[C@@H]1C[C@@H]1F [Cpd 254, 4-[6-(1-carbamoylcyclobutyl)pyrazolo[1,5-a]pyridin-3-yl]-2-(difluoromethoxy)-N-[(1R,2S)-2-fluorocyclopropyl]-6-methoxy-benzamide] | < 1.5 | < 1.5
10 | COc1cc(-c2cnn3cc(C(C)(C)N)ccc23)cc(OC(F)F)c1C(=O)N[C@@H]1C[C@@H]1F [Cpd 256, 4-[6-(1-amino-1-methyl-ethyl)pyrazolo[1,5-a]pyridin-3-yl]-2-(difluoromethoxy)-N-[(1R,2S)-2-fluorocyclopropyl]-6-methoxy-benzamide] | 1.5 to 4.5 | < 1.5
11 | COc1cc(-c2cnn3cc(C4(N)CCC4)ccc23)cc(OC(F)F)c1C(=O)N[C@@H]1C[C@@H]1F [Cpd 261, 4-[6-(1-aminocyclobutyl)pyrazolo[1,5-a]pyridin-3-yl]-2-(difluoromethoxy)-N-[(1R,2S)-2-fluorocyclopropyl]-6-methoxy-benzamide] | < 1.5 | < 1.5
